Test results taken from BindingDB's records for patent US10308652 (Bristol-Myers Squibb, 2019).

Molecular target: Tumor necrosis factor (Homo sapiens, UniProt P01375)
Experiment: TNF induced HEK-Blue assay
Protocol: Test compounds serially diluted in DMSO were plated in an assay plate (Labcyte, Cat. #LP-0200) at final concentrations ranging from 0.004 μM to 25μM. TNFα (final concentration 0.5 ng/ml) or CD4OL (final concentration 30 ng/ml) in assay buffer [DMEM, 4.5 g/l glucose (Gibco, Cat. 21063-029), 10% FBS (Sigma, F4135), 1% Penicillin-Streptomycin (Gibco, Cat. 15140-122), 1% Anti-Anti (Gibco, Cat. 15240-112) and 2 mM L-glutamine (Gibco, Cat. 25030-081)] was then added to the assay plate. After a 30 minute pre-incubation at 37° C. and 5% CO2, HEK-Blue-CD40L cells (InvivoGen, Cat. Code hkb-cd40) containing a NF-κB-driven secreted alkaline phosphatase reporter gene were seeded into the assay plate at a density of 20,000 cells per well. This plate was then incubated for 18 h at 37° C. and 5% CO2. Secreted alkaline phosphatase expression was measured using QUANTI-Blue (InvivoGen, Cat. Code rep-qb1) according to manufacturer's specifications and the assay plate was read on a PerkinElmer Envision at 620 nm.

Tumor necrosis factor, sequence (P01375 whole entry): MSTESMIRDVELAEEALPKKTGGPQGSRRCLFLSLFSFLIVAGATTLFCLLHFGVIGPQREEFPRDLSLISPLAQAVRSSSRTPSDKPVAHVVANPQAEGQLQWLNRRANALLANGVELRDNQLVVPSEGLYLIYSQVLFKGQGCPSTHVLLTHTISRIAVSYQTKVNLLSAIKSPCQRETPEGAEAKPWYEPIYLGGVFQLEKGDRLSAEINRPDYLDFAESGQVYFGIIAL

CC(C)(O)c1ccc(-c2ccc3nc4c(n3n2)[C@@H](c2ccccc2OC(F)F)NC[C@H]4O)cc1 [US10308652, Example 6]
IC50: < 1 µM
